Experimental data from PubChem BioAssay (NCI).
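Briefly, cells in 96-well plates were exposed to five compound concentrations for 48 h, and endpoints were estimated by linear interpolation. GI50: concentration for 50% inhibition of growth. TGI: total growth inhibition.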

Key:
Assay in all cases: DTP human tumour cell line panel, 48 h
MALME-3M melanoma = test system: MALME-3M melanoma
NCI/ADR-RES ovarian = test system: NCI/ADR-RES ovarian
EKVX NSCLC = test system: EKVX NSCLC
KM12 colon = test system: KM12 colon
SNB-75 CNS = test system: SNB-75 CNS
SF-539 CNS = test system: SF-539 CNS
BT-549 breast = test system: BT-549 breast
SK-OV-3 ovarian = test system: SK-OV-3 ovarian
SR leukemia = test system: SR leukemia
OVCAR-8 ovarian = test system: OVCAR-8 ovarian
HCT-116 colon = test system: HCT-116 colon
MOLT-4 leukemia = test system: MOLT-4 leukemia
A549 NSCLC = test system: A549 NSCLC
MDA-MB-468 breast = test system: MDA-MB-468 breast
SW-620 colon = test system: SW-620 colon
UACC-62 melanoma = test system: UACC-62 melanoma
U251 CNS = test system: U251 CNS
T-47D breast = test system: T-47D breast
DU-145 prostate = test system: DU-145 prostate
OVCAR-4 ovarian = test system: OVCAR-4 ovarian
SK-MEL-2 melanoma = test system: SK-MEL-2 melanoma
NCI-H226 lung = test system: NCI-H226 lung
PC-3 prostate = test system: PC-3 prostate
OVCAR-3 ovarian = test system: OVCAR-3 ovarian
MDA-MB-435 = test system: MDA-MB-435
A498 renal = test system: A498 renal
CAKI-1 renal = test system: CAKI-1 renal
NCI-H23 lung = test system: NCI-H23 lung
MCF7 breast = test system: MCF7 breast
CCRF-CEM leukemia = test system: CCRF-CEM leukemia
COLO 205 colon = test system: COLO 205 colon
ACHN renal = test system: ACHN renal
RXF 393 renal = test system: RXF 393 renal
TK-10 renal = test system: TK-10 renal
HL-60(TB) leukemia = test system: HL-60(TB) leukemia
HT29 colon = test system: HT29 colon
SF-268 CNS = test system: SF-268 CNS
HCC-2998 colon = test system: HCC-2998 colon
HCT-15 colon = test system: HCT-15 colon
UACC-257 melanoma = test system: UACC-257 melanoma
RPMI-8226 leukemia = test system: RPMI-8226 leukemia
IGROV1 ovarian = test system: IGROV1 ovarian
SK-MEL-28 melanoma = test system: SK-MEL-28 melanoma
HS 578T breast = test system: HS 578T breast
NCI-H522 lung = test system: NCI-H522 lung
MDA-MB-231 breast = test system: MDA-MB-231 breast
SK-MEL-5 melanoma = test system: SK-MEL-5 melanoma
M14 melanoma = test system: M14 melanoma
SN12C renal = test system: SN12C renal
786-0 renal = test system: 786-0 renal
K-562 leukemia = test system: K-562 leukemia
SF-295 CNS = test system: SF-295 CNS
HOP-92 NSCLC = test system: HOP-92 NSCLC
UO-31 renal = test system: UO-31 renal
NCI-H460 lung = test system: NCI-H460 lung
LOX IMVI melanoma = test system: LOX IMVI melanoma
OVCAR-5 ovarian = test system: OVCAR-5 ovarian
SNB-19 CNS = test system: SNB-19 CNS
HOP-62 NSCLC = test system: HOP-62 NSCLC

CCOc1ccccc1[C@H]1C(C(=O)c2ccc(Cl)cc2)C2(N[C@@H]1c1ccccc1)C(=O)Nc1ccc(Br)cc12 (stereo partly drawn)
GI50 (MALME-3M melanoma): 5.7 µM
TGI (MALME-3M melanoma): 12.1 µM
GI50 (NCI/ADR-RES ovarian): 5.25 µM
TGI (NCI/ADR-RES ovarian): 13 µM
GI50 (EKVX NSCLC): 7.9 µM
TGI (EKVX NSCLC): > 34.5 µM
GI50 (KM12 colon): 6 µM
TGI (KM12 colon): 20.4 µM
GI50 (SNB-75 CNS): 4.2 µM
TGI (SNB-75 CNS): 25 µM
GI50 (SF-539 CNS): 7.93 µM
TGI (SF-539 CNS): 20.2 µM
GI50 (BT-549 breast): 5.3 µM
TGI (BT-549 breast): 10.8 µM
GI50 (SK-OV-3 ovarian): 9.66 µM
TGI (SK-OV-3 ovarian): > 34.5 µM
GI50 (SR leukemia): 5.17 µM
TGI (SR leukemia): 16.3 µM
GI50 (OVCAR-8 ovarian): 6.06 µM
TGI (OVCAR-8 ovarian): 19.3 µM
GI50 (HCT-116 colon): 4.76 µM
TGI (HCT-116 colon): 11 µM
GI50 (MOLT-4 leukemia): 4.46 µM
TGI (MOLT-4 leukemia): 19.8 µM
GI50 (A549 NSCLC): 6.58 µM
TGI (A549 NSCLC): > 34.5 µM
GI50 (MDA-MB-468 breast): 3.46 µM
TGI (MDA-MB-468 breast): 12.6 µM
GI50 (SW-620 colon): 6.55 µM
TGI (SW-620 colon): 19 µM
GI50 (UACC-62 melanoma): 3.45 µM
TGI (UACC-62 melanoma): 7.98 µM
GI50 (U251 CNS): 5.72 µM
TGI (U251 CNS): 13.9 µM
GI50 (T-47D breast): 4.05 µM
TGI (T-47D breast): > 34.5 µM
GI50 (DU-145 prostate): 8.88 µM
TGI (DU-145 prostate): 32.2 µM
GI50 (OVCAR-4 ovarian): 8.09 µM
TGI (OVCAR-4 ovarian): > 34.5 µM
GI50 (SK-MEL-2 melanoma): 5.59 µM
TGI (SK-MEL-2 melanoma): 12.4 µM
GI50 (NCI-H226 lung): 4.32 µM
TGI (NCI-H226 lung): 10.6 µM
GI50 (PC-3 prostate): 3.6 µM
TGI (PC-3 prostate): > 34.5 µM
GI50 (OVCAR-3 ovarian): 5.07 µM
TGI (OVCAR-3 ovarian): 12.8 µM
GI50 (MDA-MB-435): 5.55 µM
TGI (MDA-MB-435): 12.7 µM
GI50 (A498 renal): 4.45 µM
TGI (A498 renal): 13.7 µM
GI50 (CAKI-1 renal): 2.92 µM
TGI (CAKI-1 renal): > 34.5 µM
GI50 (NCI-H23 lung): 5.43 µM
TGI (NCI-H23 lung): 13.8 µM
GI50 (MCF7 breast): 6.45 µM
TGI (MCF7 breast): 29.9 µM
GI50 (CCRF-CEM leukemia): 22.8 µM
TGI (CCRF-CEM leukemia): > 34.5 µM
GI50 (COLO 205 colon): 5.35 µM
TGI (COLO 205 colon): 10.6 µM
GI50 (ACHN renal): 7.25 µM
TGI (ACHN renal): > 34.5 µM
GI50 (RXF 393 renal): 3.8 µM
TGI (RXF 393 renal): 9.29 µM
GI50 (TK-10 renal): 8.22 µM
TGI (TK-10 renal): 28.5 µM
GI50 (HL-60(TB) leukemia): 4.77 µM
TGI (HL-60(TB) leukemia): 16.3 µM
GI50 (HT29 colon): 4.46 µM
TGI (HT29 colon): 10.1 µM
GI50 (SF-268 CNS): 6.2 µM
TGI (SF-268 CNS): 24.4 µM
GI50 (HCC-2998 colon): 4.88 µM
TGI (HCC-2998 colon): 13 µM
GI50 (HCT-15 colon): 7.51 µM
TGI (HCT-15 colon): 33.3 µM
GI50 (UACC-257 melanoma): 5.86 µM
TGI (UACC-257 melanoma): 17.6 µM
GI50 (RPMI-8226 leukemia): 6.69 µM
TGI (RPMI-8226 leukemia): > 34.5 µM
GI50 (IGROV1 ovarian): 4.88 µM
TGI (IGROV1 ovarian): 21.2 µM
GI50 (SK-MEL-28 melanoma): 6.28 µM
TGI (SK-MEL-28 melanoma): 15.7 µM
GI50 (HS 578T breast): 4.77 µM
TGI (HS 578T breast): 15.2 µM
GI50 (NCI-H522 lung): 4.41 µM
TGI (NCI-H522 lung): 13.4 µM
GI50 (MDA-MB-231 breast): 4.04 µM
TGI (MDA-MB-231 breast): 8.87 µM
GI50 (SK-MEL-5 melanoma): 5.41 µM
TGI (SK-MEL-5 melanoma): 10.8 µM
GI50 (M14 melanoma): 5.55 µM
TGI (M14 melanoma): 14.5 µM
GI50 (SN12C renal): 4.46 µM
TGI (SN12C renal): 9.03 µM
GI50 (786-0 renal): 5.76 µM
TGI (786-0 renal): 17.6 µM
GI50 (K-562 leukemia): 7.41 µM
TGI (K-562 leukemia): > 34.5 µM
GI50 (SF-295 CNS): 5.79 µM
TGI (SF-295 CNS): 21.6 µM
GI50 (HOP-92 NSCLC): 5.42 µM
TGI (HOP-92 NSCLC): 14.6 µM
GI50 (UO-31 renal): 4.99 µM
TGI (UO-31 renal): 20.8 µM
GI50 (NCI-H460 lung): 5.11 µM
TGI (NCI-H460 lung): 10.8 µM
GI50 (LOX IMVI melanoma): 4.17 µM
TGI (LOX IMVI melanoma): 8.44 µM
GI50 (OVCAR-5 ovarian): 7 µM
TGI (OVCAR-5 ovarian): 24.5 µM
GI50 (SNB-19 CNS): 9.14 µM
TGI (SNB-19 CNS): > 34.5 µM
GI50 (HOP-62 NSCLC): 5.62 µM
TGI (HOP-62 NSCLC): 13.5 µM
